Experiments:
fascin = fascin (Homo sapiens (Human), UniProt Q16658); experiment: High throughput fascin inhibition assay (actin bundling, F-actin imaging); format: biochemical
Protocol: A high throughput assay was developed to screen for fascin specific inhibitors. Purified polymerized F-actin with or without fascin were mixed and incubated to allow actin bundle formation. F-actin polymers were then bound to the poly-D-lysine coated plates. […] Four images were taken from each well and the average fiber length was analyzed for each tested compound.
Recombinant human fascin 1 was expressed as a GST fusion protein in BL21 Escherichia coli. One liter of 2YT medium with ampicillin was inoculated overnight with 3 mL of BL21/DE3 culture transformed with pGEX4T-fascin 1 plasmid and grown at 37° C. until attenuance at 600 nm (D600) reached about 0.8. The culture was then transferred to 18° C. and induced by the addition of 0.1 mM isopropyl β-d-thiogalactoside (IPTG) for 12 h. Bacteria were harvested by centrifugation at 5,000 r.p.m. for 10 min. The pellets were suspended in 30 mL of PBS supplemented with 0.2 mM PMSF, 1 mM DTT, 1% (v/v) Triton X-100 and 1 mM EDTA. After sonication, the suspension was centrifuged at 15,000 r.p.m. for 30 min to remove the cell debris. The supernatant was then incubated for 2 h with 4 mL of glutathione beads (Sigma) at 4° C. After extensive washing with PBS, the beads were resuspended in 10 mL of thrombin cleavage buffer (20 mM Tris-HCl pH 8.0, 150 mM NaCl, 2 mM CaCl2, 1 mM DTT). Fascin was released from the beads by incubation overnight with 40-100 U of thrombin at 4° C. After centrifugation, 0.2 mM PMSF was added to the supernatant to inactivate the remnant thrombin activity. The fascin protein was further concentrated with a Centricon® (Boca Raton, Fla.) filter to about 50 mg/mL.
About 150,000 compounds were screened. […] Purified fascin protein (15 μL of 0.5 μM) in buffer (100 mM KCl, 20 mM Tris/HCl, pH 7.5, 2 mM MgCl2) was added into each well of a clear 384-well flat-bottom plate (Corning) using Thermo Multidrop Combi (Fisher). Compound ([…]) solutions (5 mM stock) from various chemical libraries were pin transferred from stock 384-well plates into the 384-well assay plates and incubated for 30 min. Then 15 μL of 0.5 μM polymerized actin (in 100 mM KCl, 20 mM Tris/HCl, pH 7.5, 2 mM MgCl2, 1 mM DTT, 1 mM ATP) (Cytoskeleton Inc.) was added, resulting in 30 μM final concentration for chemical compounds. […] Mixed solution (25 μL) was then transferred to one well in a black 384-well plate coated with poly-D-lysine, and stained actin bundles or F-actin would stick onto the poly-D-lysine plates. After the plates were thoroughly washed with 1×PBS for 3 times, the plate was imaged using an ImageXpress Micro High Content Screening System (Molecular devices). The images were processed and analyzed using MetaMorph software. The raw image data for each well was background-corrected by subtraction of the median intensities across all wells on the plate. The background-corrected data was used to compute the bundle length for each well. The negative control wells were employed for quality control: multiple DMSO-only control wells (16 wells/plate) were present on each assay plate.

4T1 breast tumor cells = experiment: Boyden-chamber cell migration assay, 4T1; format: cell-based
Protocol: Since fascin is critical for tumor cell migration, inhibitors of fascin should block tumor cell migration. Representative compounds were selected from the above-identified fascin inhibitors to test their abilities on inhibition of tumor cell migration (See Table 2). […] The cell lines used are listed below.
Exemplifying procedure: MDA-MB-231 cells (5×10^4) or 4T1 Cells (1×10^5) suspended in 100 μL starvation medium were added to the upper chamber of an insert (6.5 mm diameter, 8 μm pore size; Becton Dickson), and the insert was placed in a 24-well plate containing 700 μL starvation medium with or without 10% FBS. […] Migration assays were performed for 6 h and cells were fixed with 3.7% formaldehyde. Cells were stained with crystal violet staining solution, and cells on the upper side of the insert were removed with a cotton swab. Three randomly selected fields (×10 objectives) on the lower side of the insert were photographed, and the migrated cells were counted. Migration was expressed as average number of migrated cells in a field.

Structure (SMILES) | IC50 (fascin) [µM] | IC50 (4T1 breast tumor cells) [µM]
Cc1ccc(-n2ncc3c(=O)n(Cc4ccc(Cl)c(Cl)c4)cnc32)c(C)c1 [Compound 32, 5-(3,4-dichlorobenzyl)-1-(2,4-dimethylphenyl)-1H-pyrazolo[3,4-d]pyrimidin-4(5H)-one] | 2.1 | 
O=C(Cn1cnc2c(cnn2C2CCS(=O)(=O)C2)c1=O)Nc1cccc(C(F)(F)F)c1 [Compound 23, 2-(4-oxo-1-(S,S,-dioxo-tetrahydrothiophen-3-yl)-1H-pyrazolo[3,4-d]pyrimidin-5(4H)-yl)-N-(3-(trifluoromethyl)phenyl)acetamide] | 3.4 | 
O=c1c2cnn(CCO)c2ncn1Cc1cccc(Cl)c1 [Compound 21, 5-(3-chlorobenzyl)-1-(2-hydroxyethyl)-1H-pyrazolo[3,4-d]pyrimidin-4(5H)-one] | 1.2 | 
O=C(Cn1cnc2c(cnn2C2CCS(=O)(=O)C2)c1=O)NCc1ccc(F)cc1 [Compound 24, N-(4-fluorobenzyl)-2-(4-oxo-1-(S,S-dioxo-tetrahydrothiophen-3-yl)-1H-pyrazolo[3,4-d]pyrimidin-5(4H)-yl)acetamide] | 4.3 | 
O=C(Cn1cnc2c(cnn2C2CCS(=O)(=O)C2)c1=O)c1ccc2c(c1)OCCO2 [Compound 27, 5-(2-(2,3-dihydrobenzo[b][1,4]dioxin-6-yl)-2-oxoethyl)-1-(S,S-dioxo-tetrahydrothiophen-3-yl)-1H-pyrazolo[3,4-d]pyrimidin-4(5H)-one] | ~10 | 
O=C(Cn1cnc2c(cnn2C2CCS(=O)(=O)C2)c1=O)Nc1ccc(Cl)cc1 [Compound 26, N-(4-chlorophenyl)-2-(4-oxo-1-(S,S-dioxo-tetrahydrothiophen-3-yl)-1H-pyrazolo[3,4-d]pyrimidin-5(4H)-yl)acetamide] | 4.3 | 
O=c1c2cnn(C3CCS(=O)(=O)C3)c2ncn1Cc1ccc(Cl)c(Cl)c1 [Compound 1, 5-(3,4-dichlorobenzyl)-1-(S,S,-dioxo-tetrahydrothiophen-3-yl)-1H-pyrazolo[3,4-d]pyrimidin-4(5H)-one] | 0.734 | 
Cc1ccc(C(=O)Cn2cnc3c(cnn3C3CCS(=O)(=O)C3)c2=O)c(C)c1 [Compound 28, 5-(2-(2,4-dimethylphenyl)-2-oxoethyl)-1-(S,S-dioxo-tetrahydrothiophen-3-yl)-1H-pyrazolo[3,4-d]pyrimidin-4(5H)-one] | 4.7 | 
O=C(Cn1cnc2c(cnn2C2CCS(=O)(=O)C2)c1=O)NCc1ccc2c(c1)OCO2 [Compound 25, N-(benzo[d][1,3]dioxol-5-ylmethyl)-2-(4-oxo-1-(S,S-dioxo-tetrahydrothiophen-3-yl)-1H-pyrazolo[3,4-d]pyrimidin-5(4H)-yl)acetamide] | 4.6 | 
CC(=O)Nc1nc2ccc(Cl)cc2s1 [Compound 19, N-(6-chlorobenzo[d]thiazol-2-yl)acetamide] | ~2 | ~25
Cc1cccc(-n2ncc3c(=O)n(Cc4ccc(Cl)c(Cl)c4)cnc32)c1C [Compound 31, 5-(3,4-dichlorobenzyl)-1-(2,3-dimethylphenyl)-1H-pyrazolo[3,4-d]pyrimidin-4(5H)-one] | 2.3 | 
O=C(Cn1cnc2c(cnn2C2CCS(=O)(=O)C2)c1=O)c1ccc2c(c1)OCO2 [Compound 29, 5-(2-(benzo[d][1,3]dioxol-5-yl)-2-oxoethyl)-1-(S,S-dioxo-tetrahydrothiophen-3-yl)-1H-pyrazolo[3,4-d]pyrimidin-4(5H)-one] | 3.7 | 
c1ccc(Nc2nc(-c3ccccc3)[n+](-c3ccccc3)s2)cc1 [Compound 7, N-phenyl-2,3-diphenyl-1,2,4-thiadiazolium-5-amine] | 2 | > 50

Results, then the compound that gave them:

IC50 (fascin) [µM] | IC50 (4T1 breast tumor cells) [µM] | Structure (SMILES)
0.5 | 30 | CNc1nc(-c2ccccc2)[n+](-c2ccccc2)s1 [Compound 5, N-methyl-2,3-diphenyl-1,2,4-thiadiazolium-5-amine]
~4 | ~60 | O=C(/C=C/c1ccccc1)Nc1nc2ccccc2s1 [Compound 20, N-(benzo[d]thiazol-2-yl)cinnamamide]
1.47 | > 20 | CCOc1ccc(S(=O)(=O)Nc2cc(Sc3nc[nH]n3)c(O)c3ccccc23)cc1 [Compound 9, N-(3-(1H-1,2,4-triazol-3-ylthio)-4-hydroxynaphthalen-1-yl)-4-ethoxybenzenesulfonamide]
2 | > 30 | O=C1C(Sc2nc[nH]n2)=C/C(=N/S(=O)(=O)c2ccccc2)c2ccccc21 [Compound 13, (Z)-N-(3-(1H-1,2,4-triazol-3-ylthio)-4-oxonaphthalen-1(4H)-ylidene)benzenesulfonamide]
~13 | ~3 | O=S(=O)(Nc1nc2ccc(F)cc2s1)c1cccc(Cl)c1Cl [Compound 18, 2,3-dichloro-N-(6-fluorobenzo[d]thiazol-2-yl)benzenesulfonamide]
2.7 | > 30 | Cc1ccc(S(=O)(=O)Nc2cc(Sc3nc[nH]n3)c(O)c3ccccc23)c(C)c1 [Compound 15, N-(3-(1H-1,2,4-triazol-3-ylthio)-4-hydroxynaphthalen-1-yl)-2,4-dimethylbenzenesulfonamide]
5 |  | c1ccc(CNc2nc(-c3ccccc3)[n+](-c3ccccc3)s2)cc1 [Compound 6, N-benzyl-2,3-diphenyl-1,2,4-thiadiazolium-5-amine]
0.683 | 20 | Cc1ccc(C)c(S(=O)(=O)Nc2cc(Sc3nc[nH]n3)c(O)c3ccccc23)c1 [Compound 8, N-(3-(1H-1,2,4-triazol-3-ylthio)-4-hydroxynaphthalen-1-yl)-2,5-dimethylbenzenesulfonamide]
2 |  | O=C(Nc1nn(Cc2ccc(C(F)(F)F)cc2)c2ccccc12)c1ccco1 [Compound 2, N-(1-(4-(trifluoromethyl)benzyl)-1H-indazol-3-yl)furan-2-carboxamide]
~4 | ~60 | O=[N+]([O-])c1cccc(S(=O)(=O)Nc2nc3ccc(F)cc3s2)c1 [Compound 17, N-(6-fluorobenzo[d]thiazol-2-yl)-3-nitrobenzenesulfonamide]
~4 | ~7 | O=S(=O)(Nc1nc2ccc(Oc3ccccc3)cc2s1)c1cccc(Cl)c1 [Compound 16, 3-chloro-N-(6-phenoxybenzo[d]thiazol-2-yl)benzenesulfonamide]
0.539 | 16 | Cc1cc(C)c(S(=O)(=O)Nc2cc(Sc3nc[nH]n3)c(O)c3ccccc23)cc1C [Compound 12, N-(3-(1H-1,2,4-triazol-3-ylthio)-4-hydroxynaphthalen-1-yl)-2,4,5-trimethylbenzenesulfonamide]
2 |  | Cc1ccccc1-n1ncc2c(=O)n(Cc3ccc(Cl)c(Cl)c3)cnc21 [Compound 30, 5-(3,4-dichlorobenzyl)-1-o-tolyl-1H-pyrazolo[3,4-d]pyrimidin-4(5H)-one]
2.62 | ~25 | O=S(=O)(Nc1cc(Sc2nc[nH]n2)c(O)c2ccccc12)c1ccc(Br)cc1 [Compound 14, N-(3-(1H-1,2,4-triazol-3-ylthio)-4-hydroxynaphthalen-1-yl)-4-bromobenzenesulfonamide]
0.89 | ~20 | CCc1ccc(S(=O)(=O)Nc2cc(Sc3nc[nH]n3)c(O)c3ccccc23)cc1 [Compound 11, N-(3-(1H-1,2,4-triazol-3-ylthio)-4-hydroxynaphthalen-1-yl)-4-ethylbenzenesulfonamide]
